From publication PMC3525729 (Bioorganic & medicinal chemistry letters, 2012)
Where a chain is given by its changes, count along the chain named. Each block holds one molecule with its values, some of them ahead of it.

Experiments:
[1] = target: T1, rM5 (Rattus norvegicus, UniProt P08911); test: CRC screened in agonist mode, rM5; assay type: cell-based
T1 sequence (P08911 1-531): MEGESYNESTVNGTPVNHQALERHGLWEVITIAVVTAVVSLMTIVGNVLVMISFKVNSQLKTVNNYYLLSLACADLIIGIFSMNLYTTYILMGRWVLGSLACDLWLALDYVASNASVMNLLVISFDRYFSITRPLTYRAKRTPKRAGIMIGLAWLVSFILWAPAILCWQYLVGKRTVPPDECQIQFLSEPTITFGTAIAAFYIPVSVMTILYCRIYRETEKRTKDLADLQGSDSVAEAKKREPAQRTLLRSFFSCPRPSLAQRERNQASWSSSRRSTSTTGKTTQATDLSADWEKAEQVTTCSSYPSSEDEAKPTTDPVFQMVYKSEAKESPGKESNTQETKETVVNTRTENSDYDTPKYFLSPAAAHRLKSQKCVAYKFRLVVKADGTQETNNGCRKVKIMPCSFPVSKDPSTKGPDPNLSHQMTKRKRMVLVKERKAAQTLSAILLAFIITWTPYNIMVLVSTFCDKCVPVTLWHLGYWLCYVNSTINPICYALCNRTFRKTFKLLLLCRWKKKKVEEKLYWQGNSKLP

[2] = target: T2, hM1 (Homo sapiens, UniProt P11229); conditions: screened as agonist
T2 sequence (P11229 1-460): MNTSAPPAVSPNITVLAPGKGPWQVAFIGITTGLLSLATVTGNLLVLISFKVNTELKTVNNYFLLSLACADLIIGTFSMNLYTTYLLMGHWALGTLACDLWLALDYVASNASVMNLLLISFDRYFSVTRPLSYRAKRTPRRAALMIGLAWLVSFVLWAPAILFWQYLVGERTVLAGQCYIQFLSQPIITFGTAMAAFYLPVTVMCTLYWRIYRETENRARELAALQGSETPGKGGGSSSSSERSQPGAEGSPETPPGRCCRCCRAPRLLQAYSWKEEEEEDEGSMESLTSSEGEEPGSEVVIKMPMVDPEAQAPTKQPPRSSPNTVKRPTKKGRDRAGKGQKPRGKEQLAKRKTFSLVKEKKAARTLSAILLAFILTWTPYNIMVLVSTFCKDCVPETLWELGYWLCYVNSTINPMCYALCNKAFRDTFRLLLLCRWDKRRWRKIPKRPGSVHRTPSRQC

[3] = target: rM3 (Rattus norvegicus, UniProt P08483); test: CRC screened as antagonist in presence of ACh EC80, rM3; assay type: cell-based; conditions: antagonist mode
Sequence of rM3 (P08483 whole entry): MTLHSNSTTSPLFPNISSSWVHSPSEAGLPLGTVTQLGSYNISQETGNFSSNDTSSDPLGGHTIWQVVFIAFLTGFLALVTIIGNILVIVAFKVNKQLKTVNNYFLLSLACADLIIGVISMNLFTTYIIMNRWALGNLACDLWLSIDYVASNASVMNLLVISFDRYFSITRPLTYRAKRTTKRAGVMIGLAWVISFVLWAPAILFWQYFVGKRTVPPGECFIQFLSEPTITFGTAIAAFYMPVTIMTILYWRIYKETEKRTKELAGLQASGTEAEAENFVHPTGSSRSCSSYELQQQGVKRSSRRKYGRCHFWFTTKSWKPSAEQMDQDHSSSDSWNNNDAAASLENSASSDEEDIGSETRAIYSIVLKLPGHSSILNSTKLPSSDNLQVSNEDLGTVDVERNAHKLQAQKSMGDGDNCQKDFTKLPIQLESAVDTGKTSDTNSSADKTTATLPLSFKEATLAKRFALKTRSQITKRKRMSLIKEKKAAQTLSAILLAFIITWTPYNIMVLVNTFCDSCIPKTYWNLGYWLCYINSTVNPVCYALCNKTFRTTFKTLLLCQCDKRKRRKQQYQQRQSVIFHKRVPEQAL

[4] = target: T3, hM2 (Homo sapiens, UniProt P08172); test: Human CRC screened as antagonist, hM2; assay type: cell-based; conditions: ACh EC80
T3 sequence (P08172 1-466): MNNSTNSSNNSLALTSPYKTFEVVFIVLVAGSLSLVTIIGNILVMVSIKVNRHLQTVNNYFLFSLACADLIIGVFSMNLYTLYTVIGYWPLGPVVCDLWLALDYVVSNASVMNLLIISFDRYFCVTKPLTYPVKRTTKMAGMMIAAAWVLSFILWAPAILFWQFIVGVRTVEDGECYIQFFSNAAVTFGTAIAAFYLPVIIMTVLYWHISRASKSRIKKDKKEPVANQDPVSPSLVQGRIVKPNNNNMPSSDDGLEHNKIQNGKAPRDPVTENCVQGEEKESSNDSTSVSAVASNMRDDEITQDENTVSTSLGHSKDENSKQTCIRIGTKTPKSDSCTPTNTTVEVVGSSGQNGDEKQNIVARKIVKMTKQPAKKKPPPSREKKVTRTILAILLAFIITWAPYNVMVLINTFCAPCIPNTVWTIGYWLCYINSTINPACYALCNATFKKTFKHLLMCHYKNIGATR

[5] = target: T4, rM2 (Rattus norvegicus, UniProt P10980); test: CRC screened as antagonist in presence of ACh EC80, rM2; assay type: cell-based; conditions: antagonist mode
T4 sequence (P10980 1-466): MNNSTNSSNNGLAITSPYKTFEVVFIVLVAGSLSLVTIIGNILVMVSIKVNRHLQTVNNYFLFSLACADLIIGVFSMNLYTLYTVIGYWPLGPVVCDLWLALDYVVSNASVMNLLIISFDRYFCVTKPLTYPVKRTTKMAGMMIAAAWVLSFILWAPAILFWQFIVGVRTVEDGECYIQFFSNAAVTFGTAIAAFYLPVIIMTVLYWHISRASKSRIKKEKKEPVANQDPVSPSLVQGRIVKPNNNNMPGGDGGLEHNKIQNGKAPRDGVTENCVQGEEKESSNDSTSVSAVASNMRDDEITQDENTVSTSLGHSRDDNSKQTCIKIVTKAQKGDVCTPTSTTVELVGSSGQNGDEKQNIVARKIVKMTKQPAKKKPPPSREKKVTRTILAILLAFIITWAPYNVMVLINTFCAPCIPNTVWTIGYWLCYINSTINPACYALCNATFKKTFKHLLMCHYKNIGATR

[6] = target: T5, M1 (Rattus norvegicus, UniProt P08482); test: M1 agonist screen; assay type: cell-based; conditions: for M1 activation when screened as an agonist: agonist mode
T5 sequence (P08482 1-460): T2 sequence (P11229 1-460) with A5V, T254S, P309S, R320K, A337G, I413V

[7] = target: T6, rM4 (Rattus norvegicus, UniProt P08485); test: CRC screened as antagonist in presence of ACh EC80, rM4; assay type: cell-based
T6 sequence (P08485 1-478): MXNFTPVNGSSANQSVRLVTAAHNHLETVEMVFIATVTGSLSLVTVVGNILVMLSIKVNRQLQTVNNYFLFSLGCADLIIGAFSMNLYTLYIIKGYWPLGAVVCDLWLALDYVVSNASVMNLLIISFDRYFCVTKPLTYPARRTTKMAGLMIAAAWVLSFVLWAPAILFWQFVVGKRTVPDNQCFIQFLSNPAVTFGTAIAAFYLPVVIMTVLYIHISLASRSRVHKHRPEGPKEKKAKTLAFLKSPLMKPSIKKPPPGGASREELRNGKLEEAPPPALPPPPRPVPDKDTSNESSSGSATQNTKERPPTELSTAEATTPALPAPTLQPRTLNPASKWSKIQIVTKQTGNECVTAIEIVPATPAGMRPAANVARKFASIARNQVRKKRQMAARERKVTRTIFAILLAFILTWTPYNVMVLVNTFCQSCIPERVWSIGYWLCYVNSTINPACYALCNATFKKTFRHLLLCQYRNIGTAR

[8] = cited from earlier work
[9] = target: T7, Rat M1 (Rattus norvegicus, UniProt P08482); test: CRC screened as antagonist in presence of ACh EC80, Rat M1; assay type: cell-based; conditions: antagonist mode
T7 sequence (P08482 1-460): T2 sequence (P11229 1-460) with A5V, T254S, P309S, R320K, A337G, I413V

[10] = target: T8, M5 (Homo sapiens, UniProt P08912); test: M5 antagonist screen; assay type: cell-based
T8 sequence (P08912 1-532): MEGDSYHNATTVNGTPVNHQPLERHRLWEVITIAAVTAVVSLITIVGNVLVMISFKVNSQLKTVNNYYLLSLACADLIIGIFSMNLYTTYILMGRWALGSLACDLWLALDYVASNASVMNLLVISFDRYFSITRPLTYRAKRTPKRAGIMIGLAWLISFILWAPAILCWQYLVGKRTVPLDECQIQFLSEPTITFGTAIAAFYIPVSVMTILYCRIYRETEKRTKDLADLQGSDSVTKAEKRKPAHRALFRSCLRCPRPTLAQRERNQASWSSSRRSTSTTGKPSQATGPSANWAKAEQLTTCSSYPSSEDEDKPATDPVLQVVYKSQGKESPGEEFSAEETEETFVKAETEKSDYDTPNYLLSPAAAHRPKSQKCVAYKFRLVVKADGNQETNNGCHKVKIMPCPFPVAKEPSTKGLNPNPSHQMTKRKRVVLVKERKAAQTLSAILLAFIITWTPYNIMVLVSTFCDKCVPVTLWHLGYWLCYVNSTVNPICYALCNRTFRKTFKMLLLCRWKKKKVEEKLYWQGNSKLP

[11] = target: T9, M4 (Homo sapiens, UniProt P08173); test: M4 antagonist screen; assay type: cell-based
T9 sequence (P08173 1-479): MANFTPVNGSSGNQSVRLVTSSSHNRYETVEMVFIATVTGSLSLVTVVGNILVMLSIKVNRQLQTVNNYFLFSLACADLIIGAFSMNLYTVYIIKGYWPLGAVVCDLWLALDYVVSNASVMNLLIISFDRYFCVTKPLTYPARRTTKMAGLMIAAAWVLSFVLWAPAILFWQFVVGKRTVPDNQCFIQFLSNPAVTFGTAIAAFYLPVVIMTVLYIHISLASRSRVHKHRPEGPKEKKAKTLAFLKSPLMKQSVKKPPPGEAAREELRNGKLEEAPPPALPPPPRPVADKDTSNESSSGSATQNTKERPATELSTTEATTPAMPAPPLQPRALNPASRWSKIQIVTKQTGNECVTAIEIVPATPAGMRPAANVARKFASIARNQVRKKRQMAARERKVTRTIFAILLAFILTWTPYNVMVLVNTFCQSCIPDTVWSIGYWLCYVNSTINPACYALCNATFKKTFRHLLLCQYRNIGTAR

Structure (SMILES): Cc1ccccc1CN1CCC(N2CCC(n3c(=O)[nH]c4ccccc43)CC2)CC1 [TBPB]
EC50 [1]: > 30 µM
hM1 % ACh Max [2]: 40 % ACh Max
rM3 pIC50 [3]: 5.26
hM2 pIC50 [4]: 5.46
rM2 pIC50 [5]: 5.89

Structure (SMILES): Cc1ccccc1CN1CCC(N2CCC(n3c(=O)[nH]c4ccccc43)C(F)C2)CC1 (stereo not shown) [compound 9]
M1 activation when screened as an agonist [6]: neither 9 nor 10 elicited M1 activation
IC50 [7]: > 10 µM
rM4 % ACh Max ([7]; antagonist mode, ACh EC80): 26.6±3.4 % ACh Max
rM4 pIC50 ([7]; antagonist mode, ACh EC80): 5.29±0.09
pKa of the central piperidine nitrogen atom [8]: 9.4

M1 pEC50 [6]: 5.69±0.08
Structure (SMILES): CCOC(=O)N1CCC(N2CCC[C@@H](NC(=O)c3cccc(Br)c3)C2)CC1 [compound 14]

Rat M1 % ACh Max [9]: −1.07±1.3 % ACh Max
Rat M1 pIC50 [9]: 5.20±0.04
M1 activation when screened as an agonist [6]: neither 9 nor 10 elicited M1 activation
Structure (SMILES): Cc1ccccc1CN1CCC(N2CC3CC(n4c(=O)[nH]c5ccccc54)CC3C2)CC1 (stereo not shown) [compound 10]

IC50 [10]: > 10 µM
IC50 [11]: > 10 µM
Structure (SMILES): CCOC(=O)N1CCC(N2CCC[C@@H](NC(=O)c3ccc(C(F)(F)F)nc3)C2)CC1 [compound 16]
